Test results taken from patent US20240425479A1, “HALO-SUBSTITUTED AMINO AZA-HETEROARYL COMPOUNDS AS INHIBITORS OF THE HAEMATOPOIETIC PROGENITOR KINASE 1 (HPK1)” (priority 2021, published 2024).

Biological target: T1, Recombinant (1-346) HPK1 (h) (Homo sapiens, UniProt Q92918)
T1 construct: Recombinant (1-346) HPK1 (h) is incubated with 8 mM MOPS pH 7.0
T1 sequence (Q92918 1-346): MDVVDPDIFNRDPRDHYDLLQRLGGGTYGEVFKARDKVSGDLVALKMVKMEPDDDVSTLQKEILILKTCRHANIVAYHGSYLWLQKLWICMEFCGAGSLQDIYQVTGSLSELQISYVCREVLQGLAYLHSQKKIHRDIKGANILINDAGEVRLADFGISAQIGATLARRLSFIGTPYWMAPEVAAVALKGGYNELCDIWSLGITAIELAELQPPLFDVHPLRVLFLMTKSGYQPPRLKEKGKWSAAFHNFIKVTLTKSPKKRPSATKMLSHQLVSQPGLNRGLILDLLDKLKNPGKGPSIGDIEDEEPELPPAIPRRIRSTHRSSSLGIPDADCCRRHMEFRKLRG
Assay: HPK1 human STE kinase enzymatic radiometric assay
Assay type: biochemical
Conditions: read-out: HPK1 IC50 nM Range
Method in brief: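 Recombinant HPK1 (1-346) incubated 40 min at RT with 0.33 mg/mL myelin basic protein and [gamma-33P]-ATP in 8 mM MOPS pH 7.0, 0.2 mM EDTA, 10 mM Mg acetate; reaction started with Mg/ATP. Stopped with 0.5% phosphoric acid, spotted on P30 filtermat, washed, scintillation counted. Compounds tested as 9-point 3-fold dilutions.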

Row | IC50 | Compound
1 | 0.1 to 10 nM | CN(C)Cc1cc(-c2nc(-c3cc4c(cc3F)C(=O)NCC4)c(N)nc2F)ccc1OCC1CCOCC1 [Example I-179, 6-(3-amino-6-(3-((dimethylamino)methyl)-4-((tetrahydro-2H-pyran-4-yl)methoxy)phenyl)-5-fluoropyrazin-2-yl)-7-fluoro-3,4-dihydroisoquinolin-1(2H)-one]
2 | 0.1 to 10 nM | CN(C)[C@@H]1COc2ccc(-c3nc(-c4ccc5c(c4)C(F)(F)CNC5=O)c(N)nc3F)cc21 [Example I-256, (S)-6-(3-amino-6-(3-(dimethylamino)-2,3-dihydrobenzofuran-5-yl)-5-fluoropyrazin-2-yl)-4,4-difluoro-3,4-dihydroisoquinolin-1(2H)-one]
3 | 11 to 100 nM | CN(C)Cc1cccc(-c2nc(-c3cc4c(cc3F)C(=O)NCC4)c(N)nc2F)c1 [Example I-278, 6-(3-amino-6-(3-((dimethylamino)methyl)phenyl)-5-fluoropyrazin-2-yl)-7-fluoro-3,4-dihydroisoquinolin-1(2H)-one]
4 | 0.1 to 10 nM | COCCN(C)Cc1cc(-c2nc(-c3cc(F)c4c(c3)CCNC4=O)c(N)nc2F)ccc1C1CCOCC1 [Example I-176, 6-(3-amino-5-fluoro-6-(3-(((2-methoxyethyl)(methyl)amino)methyl)-4-(tetrahydro-2H-pyran-4-yl)phenyl)pyrazin-2-yl)-8-fluoro-3,4-dihydroisoquinolin-1(2H)-one]
5 | 11 to 100 nM | COC1CCN(Cc2cc(-c3nc(-c4cc5c(cc4F)C(=O)NCC5)c(N)nc3F)ccc2C2CCOCC2)CC1 [Example I-132, 6-(3-amino-5-fluoro-6-(3-((4-methoxypiperidin-1-yl)methyl)-4-(tetrahydro-2H-pyran-4-yl)phenyl)pyrazin-2-yl)-7-fluoro-3,4-dihydroisoquinolin-1(2H)-one]
6 | 0.1 to 10 nM | CN(C)Cc1cc(-c2nc(-c3cc(F)c4c(c3)CCNC4=O)c(N)nc2F)ccc1OCC1CCOCC1 [Example I-180, 6-(3-amino-6-(3-((dimethylamino)methyl)-4-((tetrahydro-2H-pyran-4-yl)methoxy)phenyl)-5-fluoropyrazin-2-yl)-8-fluoro-3,4-dihydroisoquinolin-1(2H)-one]
7 | 11 to 100 nM | COC1CCN(Cc2cc(-c3nc(-c4ccc5c(c4)CCNC5=O)c(N)nc3F)ccc2N2CCSCC2)CC1 [Example I-126, 6-(3-amino-5-fluoro-6-(3-((4-methoxypiperidin-1-yl)methyl)-4-thiomorpholinophenyl)pyrazin-2-yl)-3,4-dihydroisoquinolin-1(2H)-one]
8 | 101 to 1000 nM | Cc1c[nH]c(=O)c2ccc(-c3nc(-c4cc(CN(C)C)c(N5CCOCC5)cc4F)c(F)nc3N)cc12 [Example I-261, 6-(3-amino-6-(5-((dimethylamino)methyl)-2-fluoro-4-morpholinophenyl)-5-fluoropyrazin-2-yl)-4-methylisoquinolin-1(2H)-one]
9 | 11 to 100 nM | CN(C)Cc1cc(-c2nc(-c3ccc4c(c3)CCNC4=O)c(N)nc2F)ccc1F [Example I-272, 6-(3-amino-6-(3-((dimethylamino)methyl)-4-fluorophenyl)-5-fluoropyrazin-2-yl)-3,4-dihydroisoquinolin-1(2H)-one]
10 | 11 to 100 nM | Nc1nc(F)c(-c2ccc(N3CCN(CCC(F)F)CC3)cc2)nc1-c1ccc2c(=O)[nH]ccc2c1 [Example I-86, 6-(3-amino-6-(4-(4-(3,3-difluoropropyl)piperazin-1-yl)phenyl)-5-fluoropyrazin-2-yl)isoquinolin-1(2H)-one]
11 | 0.1 to 10 nM | Nc1nc(F)c(-c2ccc(N3CCN(CCCC(F)F)CC3)cc2)nc1-c1ccc2c(=O)[nH]cc(F)c2c1 [Example I-136, 6-(3-amino-6-(4-(4-(4,4-difluorobutyl)piperazin-1-yl)phenyl)-5-fluoropyrazin-2-yl)-4-fluoroisoquinolin-1(2H)-one]
12 | 11 to 100 nM | Cc1nc2cc(-c3nc(-c4ccc(N5C[C@@H](C)N(C)[C@@H](C)C5)cc4)c(F)nc3N)ccc2c(=O)[nH]1 [Example I-95, 7-(3-amino-5-fluoro-6-(4-((3R,5S)-3,4,5-trimethylpiperazin-1-yl)phenyl)pyrazin-2-yl)-2-methylquinazolin-4(3H)-one]
13 | 11 to 100 nM | COc1ccc(-c2nc(-c3ccc4c(c3)CCNC4=O)c(N)nc2F)cc1C#N [Example I-292, 5-(5-amino-3-fluoro-6-(1-oxo-1,2,3,4-tetrahydroisoquinolin-6-yl)pyrazin-2-yl)-2-methoxybenzonitrile]

Further lines, the compound ahead of its results:

Row | Compound | IC50
14 | Nc1nc(F)c(-c2ccc(N3CCOCC3)c(CN3CCCCC3)c2)nc1-c1cc(F)c2c(c1)CCNC2=O [Example I-187, 6-(3-amino-5-fluoro-6-(4-morpholino-3-(piperidin-1-ylmethyl)phenyl)pyrazin-2-yl)-8-fluoro-3,4-dihydroisoquinolin-1(2H)-one] | 11 to 100 nM
15 | Cc1c[nH]c(=O)c2ccc(-c3nc(-c4cc(CN(C)C)c(N5CCOCC5)c(F)c4F)c(F)nc3N)cc12 [Example I-264, 6-(3-amino-6-(5-((dimethylamino)methyl)-2,3-difluoro-4-morpholinophenyl)-5-fluoropyrazin-2-yl)-4-methylisoquinolin-1(2H)-one] | 101 to 1000 nM
16 | CCN(C)Cc1cc(-c2nc(-c3ccc4c(c3)C(F)(F)CNC4=O)c(N)nc2F)ccc1C1CCOCC1 [Example I-224, 6-(3-amino-6-(3-((ethyl(methyl)amino)methyl)-4-(tetrahydro-2H-pyran-4-yl)phenyl)-5-fluoropyrazin-2-yl)-4,4-difluoro-3,4-dihydroisoquinolin-1(2H)-one] | 0.1 to 10 nM
17 | C[C@H]1CCCN1Cc1cc(-c2nc(-c3cc(F)c4c(c3)CCNC4=O)c(N)nc2F)ccc1C1CCOCC1 [Example I-220, (S)-6-(3-amino-5-fluoro-6-(3-((2-methylpyrrolidin-1-yl)methyl)-4-(tetrahydro-2H-pyran-4-yl)phenyl)pyrazin-2-yl)-8-fluoro-3,4-dihydroisoquinolin-1(2H)-one] | 11 to 100 nM
18 | C[C@@H]1CN(c2ccc(-c3nc(-c4ccc5c(=O)[nH]cc(Cl)c5c4)c(N)nc3F)cc2CN(C)C)C[C@H](C)O1 [Example I-231, 6-(3-amino-6-(3-((dimethylamino)methyl)-4-((2R,6S)-2,6-dimethylmorpholino)phenyl)-5-fluoropyrazin-2-yl)-4-chloroisoquinolin-1(2H)-one] | 0.1 to 10 nM
19 | CCN1CCN(c2ccc(-c3nc(-c4cc5c(cc4F)C(=O)NCC5)c(N)nc3F)cc2)CC1 [Example I-56, 6-(3-amino-6-(4-(4-ethylpiperazin-1-yl)phenyl)-5-fluoropyrazin-2-yl)-7-fluoro-3,4-dihydroisoquinolin-1(2H)-one] | 0.1 to 10 nM
20 | COC1CN(Cc2cc(-c3nc(-c4cc5c(cc4F)C(=O)NCC5)c(N)nc3F)ccc2N2CCOCC2)C1 [Example I-189, 6-(3-amino-5-fluoro-6-(3-((3-methoxyazetidin-1-yl)methyl)-4-morpholinophenyl)pyrazin-2-yl)-7-fluoro-3,4-dihydroisoquinolin-1(2H)-one] | 0.1 to 10 nM
21 | CO[C@@H]1CCN(Cc2cc(-c3nc(-c4ccc5c(c4)CCNC5=O)c(N)nc3F)ccc2N2CCOCC2)C1 [Example I-151, (R)-6-(3-amino-5-fluoro-6-(3-((3-methoxypyrrolidin-1-yl)methyl)-4-morpholinophenyl)pyrazin-2-yl)-3,4-dihydroisoquinolin-1(2H)-one] | 0.1 to 10 nM
22 | Cc1cc(-c2nc(-c3cc4c(cc3F)C(=O)NCC4)c(N)nc2F)ccc1C1CCOCC1 [Example I-222, 6-(3-amino-5-fluoro-6-(3-methyl-4-(tetrahydro-2H-pyran-4-yl)phenyl)pyrazin-2-yl)-7-fluoro-3,4-dihydroisoquinolin-1(2H)-one] | 0.1 to 10 nM
23 | C[C@@H]1CN(c2ccc(-c3nc(-c4cc5c(cc4F)C(=O)NCC5)c(N)nc3F)cc2)C[C@H](C)N1C [Example I-58, 6-(3-amino-5-fluoro-6-(4-((3R,5S)-3,4,5-trimethylpiperazin-1-yl)phenyl)pyrazin-2-yl)-7-fluoro-3,4-dihydroisoquinolin-1(2H)-one] | 0.1 to 10 nM
24 | CO[C@H]1CCN(Cc2cc(-c3nc(-c4ccc5c(c4)CCNC5=O)c(N)nc3F)ccc2N2CCOCC2)C1 [Example I-156, (S)-6-(3-amino-5-fluoro-6-(3-((3-methoxypyrrolidin-1-yl)methyl)-4-morpholinophenyl)pyrazin-2-yl)-3,4-dihydroisoquinolin-1(2H)-one] | 0.1 to 10 nM
25 | C[C@H]1CCCN1Cc1cc(-c2nc(-c3ccc4c(c3)C(F)(F)CNC4=O)c(N)nc2F)ccc1C1CCOCC1 [Example I-233, (S)-6-(3-amino-5-fluoro-6-(3-((2-methylpyrrolidin-1-yl)methyl)-4-(tetrahydro-2H-pyran-4-yl)phenyl)pyrazin-2-yl)-4,4-difluoro-3,4-dihydroisoquinolin-1(2H)-one] | 0.1 to 10 nM
26 | Cc1c[nH]c(=O)c2ccc(-c3nc(-c4ccc([C@]56C[C@H]5CN(C)C6)cc4)c(F)nc3N)cc12 [Example I-75, 6-(3-amino-5-fluoro-6-(4-((1S,5R)-3-methyl-3-azabicyclo[3.1.0]hexan-1-yl)phenyl)pyrazin-2-yl)-4-methylisoquinolin-1(2H)-one] | 11 to 100 nM
27 | Cc1[nH]c(=O)c2c(F)cc(-c3nc(-c4ccc(C5CCOCC5)c(CN(C)C)c4)c(F)nc3N)cc2c1Cl [Example I-104, 6-(3-amino-6-(3-((dimethylamino)methyl)-4-(tetrahydro-2H-pyran-4-yl)phenyl)-5-fluoropyrazin-2-yl)-4-chloro-8-fluoro-3-methylisoquinolin-1(2H)-one] | 0.1 to 10 nM
